Source: publication PMC12707362, “Targeting Aurora Kinases as Essential Cell‐Cycle Regulators to Deliver Multi‐Stage Antimalarials Against Plasmodium Falciparum” (Angewandte Chemie (International Ed. in English), 2025)
Read-outs that look alike come from different tables or passages of the source.

Assays:
[1] = system: P. berghei liver schizonts in HepG2-A16-CD81EGFP cells; experiment: P. berghei (PbLuc) liver stage assay; format: cell-based; conditions: Plasmodium berghei
Source text: (B) Antiplasmodial activity of nine anticancer aurora kinase inhibitors (selected based on their PfNF54 ABS activity) against P. falciparum multidrug-resistant ABS parasites (PfDd2 and PfK1). (C) Kinobead competitive inhibition data.
Plasmodium berghei (Pb) sporozoites were obtained by dissecting the salivary glands of infected Anopheles stephensi mosquitoes. These were provided by The SporoCore, at the University of Georgia, GA, USA (SporoCore.uga.edu). The parasites utilised a GFP-Lucama1-eef1 reporter line^[5]. These engineered parasites, termed Pb-Luc, were used to infect HepG2-A16-CD81EGFP cells. HepG2-A16-CD81EGFP cells stably transformed to express a GFP-CD81 fusion protein^[6] were cultured at 37 °C in 5% CO2 in DMEM (Invitrogen, Carlsbad, USA) supplemented with 10% FBS (Corning, NY, USA), 1X Pen/Strep/Glu (Thermo Fisher Scientific, USA). Compounds were prepared as 10 mM solutions in DMSO, and 10 nL of each (resulting in a final DMSO concentration of 0.1% per well) was transferred into assay plates using an ECHO 650 (Beckman). Concentrations ranged from 10 µM to 0.5 nM. Atovaquone (0.1 µM) served as a positive control, while 0.1% DMSO was used as a negative control. Liver stage (PbLuc) screening has been previously described^[7]. Human hepatic cells (3 × 10^3; HepG2-A16-CD81-EGFP) suspended in 5 µL of DMEM medium ([…], supplemented with 5% FBS, 5× Pen/Strep/Glu) were seeded in 1536-well plates (Greiner BioOne) using the MultiFlo FX (Agilent) 20 h before infection. PbLuc sporozoites, isolated from the salivary glands of A. stephensi mosquitoes, were filtered twice through a 20 µm nylon pore cell strainer. The sporozoites were resuspended in screening media, counted with a hemocytometer, and diluted to a final concentration of 200 sporozoites per µL. Each well received 1,000 sporozoites in 5 µL, dispensed via the GNF Dispenser II (GNF Systems). […] Luminescence was measured immediately with the Pherastar FSX reader (BMG Labtech). Luminescence values were normalized using the positive and negative controls. EC50 values were calculated with CDD Vault (Burlingame, CA). […]

[2] = Protein binding in Albumax II media; format: in vitro ADME; conditions: bovine
Source text: In vitro ADME analysis for logD, kinetic solubility (PBS, pH 7.4), human liver microsome clearance and t1/2, rat hepatocyte clearance and t1/2, and protein binding in Albumax media (simulating the malaria parasite culture media) was all performed as per standard assays by TCG LifeSciences.

Plasmodium kinases = experiment: Kinobead competitive inhibition; format: binding; conditions: 10 µM, log2 fold change below -1 versus vehicle
[3] = system: pool of barcoded drug-resistant P. falciparum parasites (Dd2 and 3D7 backgrounds); format: cell-based, Plasmodium falciparum; conditions: 3xIC50
Description: The pool consisted of 52 lines (Supplementary File S2) in both the Dd2 and 3D7 backgrounds, including wild-type, that were barcoded at the pfpare locus (PF3D7_0709700)^[18], with unique 11-bp barcode sequences. The pool (triplicate cultures of 1 mL) was exposed to 3 xIC50 of each test compound, including the positive control compound halofuginone that targets prolyl tRNA synthetase. Growth of the pool was measured every 2–3 days by flow cytometry (Beckman CytoFlex 5), staining with 1xSYBR Green I and 200 nM MitoTracker Deep Red, and parasitemia maintained within a range <5% parasitemia. At day 14, samples were harvested, lysed with 0.05% saponin and parasite pellets collected. Barcodes were amplified by PCR and quantified by sequencing using an Oxford Nanopore minION. The change in barcode proportion (log2 fold change, LFC) was measured relative to the no-drug control, with LFC>2.5 indicating cross-resistance.

recombinant PfNek1 = experiment: KinaseSeeker single-point assay, PfNek1; format: binding, Plasmodium falciparum; conditions: single point 1 µM
PfNF54 schizonts = experiment: Stage-specific morphological evaluation, nuclei count per schizont; format: cell-based, Plasmodium falciparum; conditions: TAE684 3xIC50, hesperadin IC99; n = 30
Description: Nuclei content was detected by consecutive staining with SYBR Green I (DNA fluorescence), detected in the FITC channel.
To determine the stage specificity during asexual intra-erythrocytic development, P. falciparum NF54 parasites were synchronised using 5% D-Sorbitol to obtain a >90% ring-stage population (6–10 h post-invasion, hpi). […] The rate of activity and stage-specificity was monitored morphologically using Giemsa-stained thin smears. Asexual intra-erythrocytic stage parasites were treated at ring, early/late trophozoite, and schizont stages, sampling every 12 h over a 48-hour period. Images were captured using a Nikon Eclipse 50i light microscope adapted with a Nikon camera (Nikon DS-Fi1) and NIS-Elements software. […] Parasite progression was monitored every 12 h over a 48-h period using flow cytometry, as described in^[11]. The IC50 speed assay was conducted as described in^[12]. Briefly, unsynchronised P. falciparum NF54 asexual proliferation was determined using a SYBR Green I proliferation-based assay and expressed as IC50 values as described earlier. Four incubation times were employed for each inhibitor: 96 (standard assay time), 72, 48 and 24 h. IC50 values were obtained from corrected dose-response curves using Graph-Pad Prism v10.5.

COc1cc(N2CCC(N3CCN(C)CC3)CC2)ccc1Nc1ncc(Cl)c(Nc2ccccc2S(=O)(=O)C(C)C)n1 [TAE684, NVP-TAE684]
IC50 ([1]; read-out: IC50 P. berghei liver schizonts): < 200 nM
IC50 ([1]; 48 h, PbLuc, read-out: Pb liver stage IC50): 660 nM
fraction unbound [2]: 0.2
Plasmodium kinases competed from Kinobeads (Plasmodium kinases): three Plasmodium kinases were competed from Kinobeads
barcode population Day 14 ([3]; line 3D7 (Wild type)): 5.080
barcode population Day 14 ([3]; line 3D7 ABCI3 R2180P): 2.690
barcode population Day 14 ([3]; line 3D7 ACS10 M300I): 3.200
barcode population Day 14 ([3]; line 3D7 ACS11 D648Y): 0.620
barcode population Day 14 ([3]; line 3D7 ATP2 CNV2): 2.100
barcode population Day 14 ([3]; line 3D7 DHFR-TS G378E): 0.990
barcode population Day 14 ([3]; line 3D7 DHFR-TS I403L): 3.400
barcode population Day 14 ([3]; line 3D7 FTb A515T): 1.770
barcode population Day 14 ([3]; line 3D7 MDR2 K840N): 1.670
barcode population Day 14 ([3]; line 3D7 NCR1 A1108T): 2.230
barcode population Day 14 ([3]; line Dd2 (Wild type)): 5.040
barcode population Day 14 ([3]; line Dd2-pol-delta D308A-E310A): 0.01
barcode population Day 14 ([3]; line Dd2 ATP4 G358S): 1.130
barcode population Day 14 ([3]; line Dd2 ATP4 L927V): 1.370
barcode population Day 14 ([3]; line Dd2 ATP4 Q172H): 3.070
barcode population Day 14 ([3]; line Dd2 AcAS A597V): 0.650
barcode population Day 14 ([3]; line Dd2 AcAS T648M): 2.430
barcode population Day 14 ([3]; line Dd2 AsnRS R487S): 1.530
barcode population Day 14 ([3]; line Dd2 CARL I1139K-a): 0.010
barcode population Day 14 ([3]; line Dd2 CARL I1139K-b): 0.230
barcode population Day 14 ([3]; line Dd2 CARL V1103L): 0.680
barcode population Day 14 ([3]; line Dd2 CLK3 H259P): 1.590
barcode population Day 14 ([3]; line Dd2 CPSF Y408S E): 1.340
barcode population Day 14 ([3]; line Dd2 CPSF Y408S S): 0.580
barcode population Day 14 ([3]; line Dd2 CRT M343L): 2.390
barcode population Day 14 ([3]; line Dd2 CSC1 L800P): 1.280
barcode population Day 14 ([3]; line Dd2 DHFR-TS S216R): 1.710
barcode population Day 14 ([3]; line Dd2 DHODH C276Y): 3.290
barcode population Day 14 ([3]; line Dd2 DHODH F227I): 0.650
barcode population Day 14 ([3]; line Dd2 DHODH I263F): 0.120
barcode population Day 14 ([3]; line Dd2 DHODH L531F): 0.480
barcode population Day 14 ([3]; line Dd2 GGPPS S228T): 0.800
barcode population Day 14 ([3]; line Dd2 HSP90 A41S): 2.760
barcode population Day 14 ([3]; line Dd2 IleRS E180D): 2.660
barcode population Day 14 ([3]; line Dd2 IleRS L810F): 1.180
barcode population Day 14 ([3]; line Dd2 IleRS V500A): 0.960
barcode population Day 14 ([3]; line Dd2 MCP D195N): 0.270
barcode population Day 14 ([3]; line Dd2 MCP P214T): 5.790
barcode population Day 14 ([3]; line Dd2 PI4K S743F+H1484Y): 1.350
barcode population Day 14 ([3]; line Dd2 PI4K S1320L+L1418F): 1.960
barcode population Day 14 ([3]; line Dd2 PROTB5 A20V): 1.090
barcode population Day 14 ([3]; line Dd2 PROTB5 M45I): 1.500
barcode population Day 14 ([3]; line Dd2 ProRS L482H): 6.690
barcode population Day 14 ([3]; line Dd2 QRP1 D1863Y): 5.420
barcode population Day 14 ([3]; line Dd2 TyrRS S234C): 2.590
barcode population Day 14 ([3]; line Dd2 UDP-GT F37V): 0.250
barcode population Day 14 ([3]; line Dd2 cytBC1 G33V): 1.410
barcode population Day 14 ([3]; line Dd2 cytBC1 V284L): 1.550
barcode population Day 14 ([3]; line Dd2 eEF2 L755F): 1.200
barcode population Day 14 ([3]; line Dd2 eEF2 Y186N): 1.260
barcode population Day 14 ([3]; line Dd2 kelch13 C580C): 2.860
barcode population Day 14 ([3]; line Dd2 kelch13 C580Y): 2.440
barcode population Day 14 ([3]; line Dd2 kelch13 R539T): 0.670
effect on PfNek1 (recombinant PfNek1): 40%
number of daughter merozoites per schizont (PfNF54 schizonts): significant reduction in the number of daughter merozoites
